Key:
Format in all cases: in vivo
Malat-1 = assay: MALAT-1 RNA in mouse liver by RT-qPCR
Protocol: The following experiments were performed to determine if the effects of autophagy modulators on antisense activity in vitro can be observed in vivo. […] Mice were sacrificed at 24 hours after administration of the modified oligonucleotide and tissues were collected for analysis. […] Atg7 mRNA levels are a marker of the induction of autophagy in treated mouse livers. Results are presented as percent change of RNA, relative to PBS control treated with DMSO, normalized to mouse cyclophilin A measured using mouse primer probe set Cyclophilin-A (forward sequence [NT], designated herein as SEQ ID NO: 38; reverse sequence [NT], designated herein as SEQ ID NO: 39; probe sequence [NT], designated herein as SEQ ID NO: 40). […] Following administration of modified oligonucleotide, groups of mice were either allowed free access to chow (control) or fasted overnight (16 hr fast). Mice were sacrificed at 16 hours after administration of the modified oligonucleotide and tissues were collected for analysis. […] Atg7 mRNA levels are a marker of the induction of autophagy in treated mouse livers. Results are presented in Table 33 relative to mice treated with PBS and allowed normal access to chow. […] Mice were sacrificed at 24 hours after administration of the modified oligonucleotide and tissues were collected for analysis. […] Atg7 mRNA levels are a marker of the induction of autophagy in treated mouse livers. […] RNA was extracted from liver tissue for real-time RTPCR analysis of MALAT1 RNA expression. Primer probe set 15877 was used to measure mouse MALAT1 RNA levels. Results are presented as percent change of RNA, relative to PBS control, normalized to mouse cyclophilin A measured using mouse primer probe set Cyclophilin-A. […] RNA was extracted from liver tissue for real-time RTPCR analysis of MALAT1 RNA expression. Primer probe set 15877 was used to measure mouse MALAT1 RNA levels. Results are presented as percent change of RNA, relative to PBS control, normalized to mouse cyclophilin A measured using mouse primer probe set Cyclophilin-A.

p62 = assay: Liver protein analysis in mice: p62; details: Table 30; mouse liver 24 h; oligonucleotide 5 mg/kg (or PBS); Treatment AZD8055 5 mg/kg at 0, 12, 22 h
Protocol: The following experiments were performed to determine if the effects of autophagy modulators on antisense activity in vitro can be observed in vivo. Groups of 3-4 8-week-old male C57bl/6J mice were administered 5 mg/kg control oligonucleotide 141923, or 5 mg/kg antisense oligonucleotide 399462. Following administration of modified oligonucleotide, mice were administered 1% DMSO or 5 mg/kg AZD8055 in 1% DMSO at three time points over 24 hours: at the time of administration of the modified oligonucleotide, and 12 and 22 hours after administration of the modified oligonucleotide. A group of control mice was administered PBS at time 0 and 1% DMSO at 0, 12, and 22 hours. Mice were sacrificed at 24 hours after administration of the modified oligonucleotide and tissues were collected for analysis.
Autophagy activation was confirmed in livers by determining suppression of mTOR kinase activity (pS6/S6 levels), determining an increased LC3B II/I ratio (a marker for the formation of autophagosomes), and determining p62 degradation (related to the clearance of autophagosomes). Protein analysis was carried out on liver tissue using standard procedures. All proteins were normalized to α-tubulin. Phospho-S6 Ribosomal Protein (Ser240/244) (2215S), and S6 Ribosomal Protein (2217S) antibodies were obtained from Cell Signaling Technology. The antibody against LC3B (ab48394) was purchased from Abcam. […]

[1] = system: mTOR kinase activity (pS6/S6 levels); assay: Liver protein analysis in mice: pS6/S6; details: Table 30; mouse liver 24 h; oligonucleotide 5 mg/kg (or PBS); Treatment AZD8055 5 mg/kg at 0, 12, 22 h
Protocol: The following experiments were performed to determine if the effects of autophagy modulators on antisense activity in vitro can be observed in vivo. […] Following administration of modified oligonucleotide, mice were administered 1% DMSO or 5 mg/kg AZD8055 in 1% DMSO at three time points over 24 hours: at the time of administration of the modified oligonucleotide, and 12 and 22 hours after administration of the modified oligonucleotide. A group of control mice was administered PBS at time 0 and 1% DMSO at 0, 12, and 22 hours. Mice were sacrificed at 24 hours after administration of the modified oligonucleotide and tissues were collected for analysis.
Protein analysis was carried out on liver tissue using standard procedures. All proteins were normalized to α-tubulin. […] The antibody against LC3B (ab48394) was purchased from Abcam. […] Antibody against P62 (GP62-C) was purchased from Progen.
A group of control mice was administered PBS at time 0 and 1% DMSO at 0, 12, and 22 hours. Mice were sacrificed at 24 hours after administration of the modified oligonucleotide and tissues were collected for analysis. […]

## COc1ccc(-c2ccc3c(N4CCOC[C@@H]4C)nc(N4CCOC[C@@H]4C)nc3n2)cc1CO [AZD8055]
Malat-1; Table 31, mouse liver 24 h, oligonucleotide 5 mg/kg, AZD8055 5 mg/kg at 0, 12, 22 h
  Malat-1 level (% relative to PBS/DMSO-treated mice): 121%
Malat-1; mouse liver, 399462 5 mg/kg, AZD8055 5 mg/kg
  effect on ASO activity in vivo (in words): greater Malat1 RNA reduction
p62
  P62: 0.5
[1]
  pS6/S6 ratio: 0.2

From patent publication US20210130826A1, “METHODS OF MODULATING ANTISENSE ACTIVITY” (IONIS PHARMACEUTICALS, INC., priority 2018, published 2021)
